According to patent publication US20240067693A1, “POLYPEPTIDES AND USES THEREOF” (MEDIMMUNE LIMITED, priority 2020, published 2024):
Numbered stars: 1 amine (or outer) side, 2 acyl side, 3 side chain; on linkers, the order of the positions; unused ones are H or OH. Bridge positions count the residues as written; N and C are the ends. Square brackets hold non-standard residues; d marks the D form. Side chains are listed from the residue outwards. Peptide text beside a SMILES is read from it. * marks the point of attachment. C18 diacid = O=C(O)CCCCCCCCCCCCCCCCC(=O)*; γGlu = O=C(O)[C@H](CCC(=O)[*:2])N[*:1]; αMeF = C[C@](N)(Cc1ccccc1)C(=O)O

Key:
[1] = biological target: T1, rat amylin receptor (calcitonin receptor co-expressed with receptor activity modifying protein, RAMP3) (Rat AMYR3) (Rattus norvegicus, UniProt P32214+Q9JJ73); experiment: cAMP production in HEK cells with stable recombinant expression of rat amylin receptor (Rat AMYR3); assay type: cell-based; conditions: assay buffer with 0.1% BSA
T1 construct: expressed in transfected cells
T1 sequence (P32214 25-516): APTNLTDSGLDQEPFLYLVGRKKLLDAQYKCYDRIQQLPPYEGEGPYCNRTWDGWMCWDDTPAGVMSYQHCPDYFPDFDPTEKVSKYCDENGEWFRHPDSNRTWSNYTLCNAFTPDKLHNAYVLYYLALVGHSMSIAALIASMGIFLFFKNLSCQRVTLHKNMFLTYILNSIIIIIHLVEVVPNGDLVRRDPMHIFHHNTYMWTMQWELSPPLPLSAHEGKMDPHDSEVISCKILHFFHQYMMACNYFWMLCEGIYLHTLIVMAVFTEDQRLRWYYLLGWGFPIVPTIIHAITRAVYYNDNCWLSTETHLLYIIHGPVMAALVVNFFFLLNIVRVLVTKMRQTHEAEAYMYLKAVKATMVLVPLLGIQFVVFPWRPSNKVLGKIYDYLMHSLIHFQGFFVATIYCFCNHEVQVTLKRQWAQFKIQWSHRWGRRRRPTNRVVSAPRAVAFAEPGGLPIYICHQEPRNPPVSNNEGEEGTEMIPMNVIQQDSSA
T1 sequence (Q9JJ73 23-147 partner): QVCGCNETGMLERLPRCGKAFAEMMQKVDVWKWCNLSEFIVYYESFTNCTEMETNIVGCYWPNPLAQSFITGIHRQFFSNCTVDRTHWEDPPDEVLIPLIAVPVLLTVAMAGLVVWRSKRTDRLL
In short: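 Receptor-expressing cells (human receptors in 1321N1, rat receptors in HEK) incubated 30 min at room temperature with peptide in HBSS/HEPES pH 7.4, 0.1% BSA, 0.5 mM IBMX. cAMP read by HTRF; EC50 from 4-parameter fit as % of maximal amylin or calcitonin response.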

[2] = Thioflavin T fibrillation assay; assay type: physicochemical; conditions: ThT fibrillation assay; peptide 1 mg/mL in 25 mM sodium acetate buffer pH 4.0; 6 days at 37 °C with shaking; >144 h = no increase
In short: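 Peptides at 1 mg/mL in 25 mM sodium acetate pH 4.0 with ThT (from 0.25 mM stock), incubated 6 days at 37 °C with intermittent orbital shaking at 500–750 rpm. Fluorescence (ex 444/em 480 nm) read every 30 min; value is average time to a rise in baseline-corrected signal.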

lean rats = experiment: Rat acute food intake study; assay type: in vivo; conditions: lean male Sprague Dawley rats, 20 nmol/kg subcutaneously
In short: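 Male Sprague Dawley rats (n=7/group), fasted 6 h, received 20 nmol/kg test compound or 60 nmol/kg pramlintide subcutaneously 30 min before food return at dark onset. Food intake recorded automatically in home cages over 3 days, binned hourly and analysed as cumulative dark-period intake; body weight taken daily.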

SMILES	EC50 [1] [pM]	Time taken to detect increase in fluorescence intensity [2] [h]	Cummulative food intake (% vehicle treated intake) At 12 h (lean rats) [% vehicle treated intake]	Cummulative food intake (% vehicle treated intake) At 24 h (lean rats) [% vehicle treated intake]	Cummulative food intake (% vehicle treated intake) At 48 h (lean rats) [% vehicle treated intake]
CC[C@H](C)[C@H](NC(=O)[C@@H]1CCCN1C(=O)CNC(=O)[C@](C)(Cc1ccccc1)NC(=O)[C@H](CC(N)=O)NC(=O)[C@H](CC(N)=O)NC(=O)[C@H](CO)NC(=O)[C@H](CO)NC(=O)[C@H](Cc1c[nH]cn1)NC(=O)[C@H](CCCNC(=N)N)NC(=O)[C@H](CC(C)C)NC(=O)[C@H](Cc1ccccc1)NC(=O)[C@H](CCC(=O)O)NC(=O)[C@H](C)NC(=O)[C@H](CC(C)C)NC(=O)[C@H](CCCNC(=N)N)NC(=O)[C@H](CCC(N)=O)NC(=O)[C@@H](NC(=O)[C@H](C)NC(=O)[C@@H]1CSSC[C@H](NC(=O)[C@H](CCCCN)NC(=O)[C@@H](N)CCCCNC(=O)CC[C@H](NC(=O)CCCCCCCCCCCCCCCCC(=O)O)C(=O)O)C(=O)N[C@@H](CC(N)=O)C(=O)N[C@@H]([C@@H](C)O)C(=O)N[C@@H](C)C(=O)N[C@@H]([C@@H](C)O)C(=O)N1)[C@@H](C)O)C(=O)N[C@@H](CC(C)C)C(=O)N1CCC[C@H]1C(=O)N1CCC[C@H]1C(=O)N[C@H](C(=O)N[C@@H](CC(N)=O)C(=O)N[C@H](C(=O)NCC(=O)N[C@@H](CO)C(=O)N[C@@H](CC(N)=O)C(=O)N[C@H](C(=O)N[C@@H](Cc1ccc(O)cc1)C(N)=O)[C@@H](C)O)C(C)C)[C@@H](C)O [Peptide 12, K(γE-C18diacid)K[CNTATC]ATQRLAEFLRHSSNN(αMePhe)GPILPPTNVGSNTY-amide] (H-K([γGlu-C18 diacid])KCNTATCATQRLAEFLRHSSNN[αMeF]GPILPPTNVGSNTY-NH2; disulfide 3-8; N-terminus assumed)	5	>144	9.4	7.5	23.6
CC[C@H](C)[C@H](NC(=O)[C@@H]1CCCN1C(=O)CNC(=O)[C@](C)(Cc1ccccc1)NC(=O)[C@H](CC(N)=O)NC(=O)[C@H](CC(N)=O)NC(=O)[C@H](CO)NC(=O)[C@H](CO)NC(=O)[C@H](Cc1c[nH]cn1)NC(=O)[C@H](CCCNC(=N)N)NC(=O)[C@H](CC(C)C)NC(=O)[C@H](Cc1ccccc1)NC(=O)[C@H](CC(N)=O)NC(=O)[C@H](C)NC(=O)[C@H](CC(C)C)NC(=O)[C@H](CCCNC(=N)N)NC(=O)[C@H](CCC(N)=O)NC(=O)[C@@H](NC(=O)[C@H](C)NC(=O)[C@@H]1CSSC[C@H](NC(=O)[C@H](CCCCN)NC(=O)[C@@H](N)CCCCNC(=O)CC[C@H](NC(=O)CCCCCCCCCCCCCCCCC(=O)O)C(=O)O)C(=O)N[C@@H](CC(N)=O)C(=O)N[C@@H]([C@@H](C)O)C(=O)N[C@@H](C)C(=O)N[C@@H]([C@@H](C)O)C(=O)N1)[C@@H](C)O)C(=O)N[C@@H](CC(C)C)C(=O)N1CCC[C@H]1C(=O)N1CCC[C@H]1C(=O)N[C@H](C(=O)N[C@@H](CCC(=O)O)C(=O)N[C@H](C(=O)NCC(=O)N[C@@H](CO)C(=O)N[C@@H](CC(N)=O)C(=O)N[C@H](C(=O)N[C@@H](Cc1ccc(O)cc1)C(N)=O)[C@@H](C)O)C(C)C)[C@@H](C)O [Peptide 15, K(γE-C18diacid)K[CNTATC]ATQRLANFLRHSSNN(αMePhe)GPILPPTEVGSNTY-amide] (H-K([γGlu-C18 diacid])KCNTATCATQRLANFLRHSSNN[αMeF]GPILPPTEVGSNTY-NH2; disulfide 3-8; N-terminus assumed)	10.3	>144	45.2	49.1	51
CC[C@H](C)[C@H](NC(=O)[C@@H]1CCCN1C(=O)CNC(=O)[C@](C)(Cc1ccccc1)NC(=O)[C@H](CC(N)=O)NC(=O)[C@H](CC(N)=O)NC(=O)[C@H](CO)NC(=O)[C@H](CO)NC(=O)[C@H](Cc1c[nH]cn1)NC(=O)[C@H](CCCNC(=N)N)NC(=O)[C@H](CC(C)C)NC(=O)[C@H](Cc1ccccc1)NC(=O)[C@H](CC(N)=O)NC(=O)[C@H](C)NC(=O)[C@H](CC(C)C)NC(=O)[C@H](CCCNC(=N)N)NC(=O)[C@H](CCC(N)=O)NC(=O)[C@@H](NC(=O)[C@H](C)NC(=O)[C@@H]1CSSC[C@H](NC(=O)[C@@H](N)CCCCNC(=O)CC[C@H](NC(=O)CC[C@H](NC(=O)CCCCCCCCCCCCCCCCC(=O)O)C(=O)O)C(=O)O)C(=O)N[C@@H](CC(N)=O)C(=O)N[C@@H]([C@@H](C)O)C(=O)N[C@@H](C)C(=O)N[C@@H]([C@@H](C)O)C(=O)N1)[C@@H](C)O)C(=O)N[C@@H](CC(C)C)C(=O)N1CCC[C@H]1C(=O)N1CCC[C@H]1C(=O)N[C@H](C(=O)N[C@@H](CCC(=O)O)C(=O)N[C@H](C(=O)NCC(=O)N[C@@H](CO)C(=O)N[C@@H](CC(N)=O)C(=O)N[C@H](C(=O)N[C@@H](Cc1ccc(O)cc1)C(N)=O)[C@@H](C)O)C(C)C)[C@@H](C)O [Peptide 18, K(γE-γE-C18diacid)[CNTATC]ATQRLANFLRHSSNN(αMePhe)GPILPPTEVGSNTY-amide] (H-K([γGlu-γGlu-C18 diacid])CNTATCATQRLANFLRHSSNN[αMeF]GPILPPTEVGSNTY-NH2; disulfide 2-7; N-terminus assumed)	16.5	>144	45.8	46.9	68.8
CC[C@H](C)[C@H](NC(=O)[C@@H]1CCCN1C(=O)CNC(=O)[C@](C)(Cc1ccccc1)NC(=O)[C@H](CC(N)=O)NC(=O)[C@H](CC(N)=O)NC(=O)[C@H](CO)NC(=O)[C@H](CO)NC(=O)[C@H](Cc1c[nH]cn1)NC(=O)[C@H](CCCNC(=N)N)NC(=O)[C@H](CC(C)C)NC(=O)[C@H](Cc1ccccc1)NC(=O)[C@H](CC(N)=O)NC(=O)[C@H](C)NC(=O)[C@H](CC(C)C)NC(=O)[C@H](CCCNC(=N)N)NC(=O)[C@H](CCC(N)=O)NC(=O)[C@@H](NC(=O)[C@H](C)NC(=O)[C@@H]1CSSC[C@H](NC(=O)[C@@H](N)CCCCNC(=O)CC[C@H](NC(=O)CC[C@H](NC(=O)CCCCCCCCCCCCCCCCC(=O)O)C(=O)O)C(=O)O)C(=O)N[C@@H](CC(N)=O)C(=O)N[C@@H]([C@@H](C)O)C(=O)N[C@@H](C)C(=O)N[C@@H]([C@@H](C)O)C(=O)N1)[C@@H](C)O)C(=O)N[C@@H](CC(C)C)C(=O)N1CCC[C@H]1C(=O)N1CCC[C@H]1C(=O)N[C@H](C(=O)N[C@@H](CC(N)=O)C(=O)N[C@H](C(=O)NCC(=O)N[C@@H](CO)C(=O)N[C@@H](CC(N)=O)C(=O)N[C@H](C(=O)N[C@@H](Cc1ccc(O)cc1)C(N)=O)[C@@H](C)O)C(C)C)[C@@H](C)O [Peptide 20, K(γE-γE-C18diacid)[CNTATC]ATQRLANFLRHSSNN(αMePhe)GPILPPTNVGSNTY-amide] (H-K([γGlu-γGlu-C18 diacid])CNTATCATQRLANFLRHSSNN[αMeF]GPILPPTNVGSNTY-NH2; disulfide 2-7; N-terminus assumed)	10.4	>144	27	26.2	49.7
